Source: patent publication US12473305B2, “Pyrazole boronic acid compound, pharmaceutical composition containing same, and uses thereof” (BEIJING SONGRUN PHARMACEUTICAL TECHNOLOGY CO., LTD., priority 2020, dated 2025)

Assays:
[1] = tested on: human liver cancer Bel7404; experiment: Antitumor activity in vivo, Bel7404 transplanted in nude mice; design: species or system male BALB/c athymic nude mice; settings: for RTV (d22): iv × 5; for Animal weight (g) (After tumor removal) / Inhibition rate %: iv × 5, d22
Protocol: In the test, the Bel7404 models of human liver cancer transplanted into 6-week-old male BALB/c athymic nude mice (purchased from Shanghai Slac Laboratory Animal Co., Ltd.) with body weight of 18-20 g were used to study the anti-tumor effect of compound 30. The dose of compound 30 was 50 mg/kg (30H group), 25 mg/kg (30 M group) and 12.5 mg/kg (30 L group), respectively, and was injected intravenously twice a week for 5 times in total; at the same time, 5-FU was used as the control drug, which was injected intraperitoneally twice a week for 7 times in total (5 mice/group for the compound 30 administration group, 5 mice in 5 FU administration group; 8 mice were used as the mock group). The long diameter a (mm) and the vertical short diameter b (mm) of the tumor were measured twice a week with a digital electronic caliper. The tumor volume calculation formula was TV=ab^2/2; and the relative tumor volume calculation formula was RTV=Vt/Vo, wherein Vo was the tumor volume measured on the first day of administration (d1), and Vt was the tumor volume at each measurement. On the 22nd day of administration (d22), the animals were sacrificed and weighed. The tumor mass was dissected and weighed. The tumor inhibition rate (tumor inhibitory rate, %) was calculated according to the following formula: […]

[2] = tested on: non-small cell lung cancer cell line A549; experiment: CellTiter-Glo tumor cell proliferation, A549; format: cell-based, human; settings: Homo sapiens, A549; CellTiter-Glo, 72 h
In short: (§1)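 Cells seeded at 2×10^4/mL, grown 24 h at 37° C, 5% CO2, then treated in triplicate with medium-diluted compound for 72 h. CellTiter-Glo luminescence read after 20 min at 37° C; inhibition versus untreated control RLU, IC50 calculated.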

A549 = experiment: MTT antitumor spectrum, A549; format: cell-based; settings: Homo sapiens, 72 h
Protocol: The activity of compound 30 was evaluated by MTT method against seven tumor cell models, A549, A375, HCT116, MDA-MB-231, HepG2, PC3 and MCF-7. All cells used in the study were prepared at a concentration of 3.5×10^3 cells/mL, and each […] cell suspension was inoculated on a 96-well microtiter plate for 24 hours (37° C., 5% CO2). Then different concentrations of compound 30 were added, incubated for 72 hours; and for the control group, equivalent concentrations of DMSO (final concentration 0.5%) were added. The number of viable cells was measured by MTT (3-(4,5-dimethylthiazol-2-yl)-diphenyl tetrazolium bromide) method, and the OD value at 492/620 nm was recorded. The IC50 value was calculated by Prism-Graphpad software based on the results of triplicate experiments.

[3] = tested on: Human melanoma cell line A375; experiment: CellTiter-Glo tumor cell proliferation, A375; format: cell-based; settings: Homo sapiens, A-375; CellTiter-Glo, 72 h
In short: as §1

[4] = target: T1, 20S proteasome β1 subunit (Homo sapiens, UniProt P28072+Q99436); experiment: Proteasome-Glo Cell-Based assay in K562 cells, β1 subunit; settings: 2 h incubation
T1 construct: endogenous in cells; host or cells: K562
Protocol: Proteasome-Glo™ Cell-Based assay kit (Promega, USA) was used to determine the activity of the target compound against the 20S proteasome. Human chronic myeloid leukemia cell line (K562, 6000 cells/well) was inoculated into the 384 well plate in 20 μL/well. The cells were then equilibrated at 37° C., 5% CO2 for 2 hours. Each 384 well plate was set with the mock group and treatment group, and each well of the treatment group was added with 5 μL of the compound solution with the final concentration of 40 μM, 13.3 μM, 4.44 μM, 1.48 μM, 0.49 μM, 0.16 μM, 0.055 μM, 0.0183 μM, […], 0.0061 μM. The cells was incubated with the drugs for 2 hours at 37° C., 5% CO2 before adding 25 μL of corresponding Proteasome-Glo™ Cell-Based reagent per well. The relative luminescence unit (RLU) was measured by using Multimode Microplate Reader Varioskan Flash (Thermo Scientific, USA) after 15 min and compared with the RLU of the control group. SigmaPlot 10.0 software was used to calculate IC50 value.

CC(C)C[C@H](NC(=O)Cn1nc(-c2cccc(OCCN3CCOCC3)c2)cc1-c1ccccc1)B(O)O.Cl [Compound 30, (R)-(3-methyl-1-(2-(3-(3-(2-morpholinoethoxy)phenyl)-5-phenyl-1H-pyrazol-1-yl)-acetamido)butyl)boronic acid hydrochloride]
RTV (d22) ([1]; 12.5 mg/kg): 4.52 ± 1.08 | Animal weight (g) (After tumor removal) ([1]; 12.5 mg/kg): 23.11 ± 0.65 g | Inhibition rate % ([1]; 12.5 mg/kg): 24.89% | RTV (d22) ([1]; 25 mg/kg): 3.82 ± 0.67 | Animal weight (g) (After tumor removal) ([1]; 25 mg/kg): 21.91 ± 0.56 g | Inhibition rate % ([1]; 25 mg/kg): 36.55% | RTV (d22) ([1]; 50 mg/kg): 2.33 ± 0.59 | Animal weight (g) (After tumor removal) ([1]; 50 mg/kg): 19.95 ± 0.45 g | Inhibition rate % ([1]; 50 mg/kg): 61.29% | IC50 [2]: 3050 nM | IC50 (A549): 3050 nM | IC50 [3]: 822 nM | IC50 [4]: 2040 nM
